Laboratory results published in patent publication US20050137220A1 (Pharmacia Corporation, priority 2003, published 2005).
Counter-ions that a name gives are not always drawn.

Target: MK-2 (Homo sapiens, UniProt P49137)
Assay: Determination of MK-2 IC50 (phosphorylation of HSP-peptide, anion exchange resin capture assay)
Type: biochemical
Details: additional values are replicate IC50 experiments; mixture of stereoisomers implied unless otherwise noted; read-out: MK-2 Avg. IC50

MK-2, sequence (P49137 whole entry, species assumed): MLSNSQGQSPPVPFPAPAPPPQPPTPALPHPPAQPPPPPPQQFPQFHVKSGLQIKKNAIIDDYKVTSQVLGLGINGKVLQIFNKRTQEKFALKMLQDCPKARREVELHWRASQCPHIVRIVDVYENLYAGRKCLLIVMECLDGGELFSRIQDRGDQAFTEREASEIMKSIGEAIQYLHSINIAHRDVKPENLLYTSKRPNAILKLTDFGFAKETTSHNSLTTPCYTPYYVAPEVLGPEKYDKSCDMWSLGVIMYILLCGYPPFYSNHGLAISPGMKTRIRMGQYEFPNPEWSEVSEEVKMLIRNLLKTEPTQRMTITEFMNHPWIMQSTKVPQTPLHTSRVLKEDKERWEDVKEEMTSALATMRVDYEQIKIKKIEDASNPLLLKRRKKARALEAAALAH

| Compound | IC50 [µM] |
| --- | --- |
| O=C(O)C1NCCc2c1[nH]c1ccc(OCc3ccccc3Cl)cc21 (stereo not drawn) [Example 196, 6-[(2-chlorobenzyl)oxy]-2,3,4,9-tetrahydro-1H-beta-carboline-1-carboxylic acid hydrochloride] | > 200 |
| CCC(CC)CN1CCc2c([nH]c3ccc(OC)cc23)C1C(=O)O (stereo not drawn) [Example 197, sodium 2-(2-ethylbutyl)-6-methoxy-2,3,4,9-tetrahydro-1H-beta-carboline-1-carboxylate] | > 200 |
| O=C(O)C1NCCc2c1[nH]c1ccc(OCC3CCCCC3)cc21 (stereo not drawn) [Example 198, 6-(cyclohexylmethoxy)-2,3,4,9-tetrahydro-1H-beta-carboline-1-carboxylic acid] | > 200 |
| COC(=O)C1c2[nH]c3ccc(OC)cc3c2CCN1C(C)C (stereo not drawn) [Example 199, methyl 2-isopropyl-6-methoxy-2,3,4,9-tetrahydro-1H-beta-carboline-1-carboxylate] | > 200 |
| NNC(=O)c1cccc2[nH]c3c(c12)CCNC3C(=O)O (stereo not drawn) [Example 200, 5-(hydrazinocarbonyl)-2,3,4,9-tetrahydro-1H-beta-carboline-1-carboxylic acid trifluoroacetate] | > 200 |
| COc1cc2[nH]c3c(c2cc1OC)CCNC3C(=O)O (stereo not drawn) [Example 201, 6,7-dimethoxy-2,3,4,9-tetrahydro-1H-beta-carboline-1-carboxylic acid trifluoroacetate] | > 200 |
| COc1ccc2c3c([nH]c2c1)C(Cc1ccc(OC)c(OC)c1OC)(C(=O)O)NCC3 (stereo not drawn) [Example 203, 7-methoxy-1-[(2,3,4-trimethoxyphenyl)methyl]-2,3,4,9-tetrahydro-1H-beta-carboline-1-carboxylic acid, acetate (1:1)] | > 200 |
| O=C(O)C1(Cc2ccc3c(c2)OCO3)NCCc2c1[nH]c1ccccc21 (stereo not drawn) [Example 204, 1-[(benzodioxolan-5-yl)methyl]-2,3,4,9-tetrahydro-1H-beta-carboline-1-carboxylic acid] | > 200 |
| COc1ccc2[nH]c3c(c2c1)CC(C(F)(F)F)NC3C(=O)O (stereo not drawn) [Example 205, 6-methoxy-3-(trifluoromethyl)-2,3,4,9-tetrahydro-1H-beta-carboline-1-carboxylic acid] | > 200 |
| COc1ccc2[nH]c3c(c2c1)CCN1CC(C)NC(=O)C31 (centres unmarked) [Example 206, 9-methoxy-3-methyl-3,4,6,7,12,12b-hexahydropyrazino[1′, 2′:1 , 2]pyrido[3,4-b]indol-1(2H)-one] | > 200 |
| COC(=O)C1c2[nH]c3ccc(OC)cc3c2CCN1C(=O)C(F)(F)F (stereo not drawn) [Example 207, methyl 6-methoxy-2-(trifluoroacetyl)-2,3,4,9-tetrahydro-1H-beta-carboline-1-carboxylate] | > 200 |
| COc1ccc2[nH]c3c(c2c1)C(c1ccccc1)CNC3C(=O)O (stereo not drawn) [Example 210, 6-methoxy-4-phenyl-2,3,4,9-tetrahydro-1H-beta-carboline-1-carboxylic acid hydrochloride] | > 200 |
| CCOC(=O)C1c2[nH]c3ccccc3c2CCN1C(=O)c1ccc(OC)o1 (centres unmarked) [Example 211, 1h-Pyrido[3,4-B]Indole-1-Carboxylic Acid, 2,3,4,9-Tetrahydro-2-[(5-Methoxy-2-Furanyl)Carbonyl]-,Ethyl Ester] | > 200 |
| COC(=O)C1(C)NCCc2c1[nH]c1ccccc21 (centres unmarked) [Example 212, 1h-Pyrido[3,4-B]Indole-1-Carboxylic Acid, 2,3,4,9-Tetrahydro-1-Methyl-,Methyl Ester] | > 200 |
| COC(=O)CC1CC2(C(=O)OC)c3[nH]c4ccccc4c3CCN2C1=O (centres unmarked) [Example 213, 1h-Indolizino[8,7-B]Indole-2-Acetic Acid, 2,3,5,6,11,11b-(Methoxycarbonyl)-3-Oxo-, Methyl Ester] | > 200 |
| O=C(O)C1NCCc2c1[nH]c1cc(F)ccc21 (stereo not drawn) [Example 214, 7-fluoro-2,3,4,9-tetrahydro-1H-beta-carboline-1-carboxylic acid hydrochloride] | > 200 |
| Cc1cccc2c3c([nH]c12)C(C(=O)O)NCC3 (stereo not drawn) [Example 215, 8-methyl-2,3,4,9-tetrahydro-1H-beta-carboline-1-carboxylic acid hydrochloride] | > 200 |
| Cc1ccc2[nH]c3c(c2c1)CCNC3C(=O)O (stereo not drawn) [Example 216, 6-methyl-2,3,4,9-tetrahydro-1H-beta-carboline-1-carboxylic acid hydrochloride] | > 200 |
| COc1ccc2c3c([nH]c2c1)C(C(=O)O)NCC3 (stereo not drawn) [Example 217, 7-methoxy-2,3,4,9-tetrahydro-1H-beta-carboline-1-carboxylic acid hydrochloride] | > 200 |
| COc1ccc2[nH]c3c(c2c1)CCN(C(=O)OCc1ccccc1)C3C(=O)NCC(=O)OCc1ccccc1 (stereo not drawn) [Example 218, 2-[(benzyloxy)carbonyl]-6-methoxy-N-[2-(benzyloxy)-2-oxo]ethyl-2,3,4,9-tetrahydro-1H-beta-carboline-1-carboxamide] | > 200 |
| COc1ccc2[nH]c3c(c2c1)CCN(C(=O)OCc1ccccc1)C3C(=O)O (stereo not drawn) [Example 219, 2-[(benzyloxy)carbonyl]-6-methoxy-2,3,4,9-tetrahydro-1H-beta-carboline-1-carboxylic acid] | > 200 |
| COc1ccc2[nH]c3c(c2c1)CCNC3C(N)=O (stereo not drawn) [Example 220, 6-methoxy-2,3,4,9-tetrahydro-1H-beta-carboline-1-carboxamide] | > 200 |

| Compound | IC50 [µM] |
| --- | --- |
| COc1ccc2[nH]c3c(c2c1)CCNC3CO (stereo not drawn) [Example 221, (6-methoxy-2,3,4,9-tetrahydro-1H-beta-carbolin-1-yl)methanol] | > 200 |
| COc1ccc2[nH]c3c(c2c1)C(Cc1ccco1)CNC3C(=O)O (stereo not drawn) [Example 222, 4-(2-furylmethyl)-6-methoxy-2,3,4,9-tetrahydro-1H-beta-carboline-1-carboxylic acid trifluoroacetate] | > 200 |
| COc1cccc2c3c([nH]c12)C(C(=O)O)NCC3 (stereo not drawn) [Example 223, 8-methoxy-2,3,4,9-tetrahydro-1H-beta-carboline-1-carboxylic acid trifluoroacetate hydrate] | > 200 |
| COc1ccc2[nH]c3c(c2c1)CCNC3C(F)(F)F (stereo not drawn) [Example 224, 6-methoxy-1-(trifluoromethyl)-2,3,4,9-tetrahydro-1H-beta-carboline] | > 200 |
| C=CCN1CCc2c([nH]c3ccc(OC)cc23)C1C(=O)OC (stereo not drawn) [Example 225, methyl 2-allyl-6-methoxy-2,3,4,9-tetrahydro-1H-beta-carboline-1-carboxylate] | > 200 |
| COc1ccc2[nH]c3c(c2c1)CCNC3(CC(=O)O)C(=O)O (stereo not drawn) [Example 226, 1-(carboxymethyl)-6-methoxy-2,3,4,9-tetrahydro-1H-beta-carboline-1-carboxylic acid] | > 200 |
| COC(=O)C1Cc2c([nH]c3ccccc23)C(C(=O)O)N1 (stereo not drawn) [Example 227, 3-(methoxycarbonyl)-2,3,4,9-tetrahydro-1H-beta-carboline-1-carboxylic acid] | > 200 |
| COc1ccc2[nH]c3c(c2c1)CCNC3C(=O)NCC(=O)O (stereo not drawn) [Example 229, N-[(6-methoxy-2,3,4,9-tetrahydro-1H-beta-carbolin-1-yl)carbonyl]glycine hydrochloride hydrate] | > 200 |
| COc1ccc2[nH]c3c(c2c1)CCNC3CN (stereo not drawn) [Example 230, 1-(6-methoxy-2,3,4,9-tetrahydro-1H-beta-carbolin-1-yl)methanamine trifluoroacetate hydrate] | > 200 |
| COc1ccc2[nH]c3c(c2c1)CCNC3CC#N (stereo not drawn) [Example 231, (6-methoxy-2,3,4,9-tetrahydro-1H-beta-carbolin-1-yl)acetonitrile] | > 200 |
| COC(=O)C1c2[nH]c3ccc(OC)cc3c2CCN1C(C)=O (stereo not drawn) [Example 232, methyl 2-acetyl-6-methoxy-2,3,4,9-tetrahydro-1H-beta-carboline-1-carboxylate] | > 200 |
| COc1ccc2[nH]c3c(c2c1)C(c1ccccc1)CNC3C(=O)O (stereo not drawn) [Example 233, 6-methoxy-4-phenyl-2,3,4,9-tetrahydro-1H-beta-carboline-1-carboxylic acid] | > 200 |
| COC(=O)C1c2[nH]c3ccc(OC)cc3c2CCN1C(=O)OC(C)(C)C (stereo not drawn) [Example 234, 2-tert-butyl 1-methyl 6-methoxy-1,3,4,9-tetrahydro-2H-beta-carboline-1,2-dicarboxylate] | > 200 |
| COC(=O)C1(C)NCCc2c1[nH]c1ccccc21 (stereo not drawn) [Example 235, methyl 1-methyl-2,3,4,9-tetrahydro-1H-beta-carboline-1-carboxylate] | > 200 |
| COc1ccc2[nH]c3c(c2c1)CCN1COC(=O)C31 (centres unmarked) [Example 236, 8-methoxy-5,6,11,11b-tetrahydro-1H-[1,3]oxazolo[3′,4′:1,2]pyrido[3,4-b]indol-1-one] | > 200 |
| COc1ccc2[nH]c3c(c2c1)CCNC3(C)C(=O)O (stereo not drawn) [Example 237, 6-methoxy-1-methyl-2,3,4,9-tetrahydro-1H-beta-carboline-1-carboxylic acid hydrochloride] | > 200 |
| COC(=O)c1cccc2[nH]c3c(c12)CCNC3C(=O)O (stereo not drawn) [Example 238, 5-(methoxycarbonyl)-2,3,4,9-tetrahydro-1H-beta-carbolin-1-carboxylic acid hydrate] | > 200 |
| COc1ccc2[nH]c3c(c2c1)CCNC3[C@H](O)CO (stereo partly drawn) [Example 239, (1S)-1-(6-methoxy-2,3,4,9-tetrahydro-1H-beta-carbolin-1-yl)ethane-1,2-diol trifluoroacetate] | > 200 |
| COc1ccc2[nH]c3c(c2c1)CCNC3(Cc1ccccc1)C(=O)O (stereo not drawn) [Example 241, 1-benzyl-6-methoxy-2,3,4,9-tetrahydro-1H-beta-carboline-1-carboxylic acid hydrochloride] | > 200 |
| O=C1NCCc2c1[nH]c1ccc(C#Cc3ccccc3)cc21 [Example 248, 6-(phenylethynyl)-2,3,4,9-tetrahydro-1H-beta-carbolin-1-one] | > 200 |
| O=C1NCCc2c1[nH]c1cccc(C(=O)O)c21 [Example 250, 1-oxo-2,3,4,9-tetrahydro-1H-beta-carboline-5-carboxylic acid] | > 200 |
| O=C1NCCc2c1[nH]c1cccc(C(=O)N3CCOCC3)c21 [Example 251, 5-(morphoiln-4-ylcarbonyl)-2,3,4,9-tetrahydro-1H-beta-carbolin-1-one] | > 200 |
